Read-outs that look alike come from different tables or passages of the source.
Key:
[1] = test system: human duodenum monolayer culture; test: Increased trans-epithelial resistance (TEER) in human organoid monolayer cell cultures; type: cell-based; settings: 1 μM apical, baseline corrected
How it was run: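 Human duodenum organoid-derived monolayers on 0.4 μm Transwells, differentiated with EGF, noggin, A83-01 from day 3, dosed apically on day 6 or 7 with 1 μM compound at 37° C., 5% CO2, duplicate wells. TEER read before and 30 min and 1 hr after dosing, baseline-corrected and expressed as percent of DMSO vehicle.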

[2] = test system: absorption of sodium from the intestinal lumen; test: Inhibition of intestinal sodium absorption in rats; type: in vivo, Sprague Dawley rats; settings: 13-hours post-dose; for response vs control in vivo at 0.003 mg/kg / response vs control in vivo at 0.01 mg/kg / response vs control in vivo at 0.03 mg/kg / response vs control in vivo at 0.1 mg/kg: Rattus norvegicus, Sprague Dawley rats, read-out: Urinary Na (% of Vehicle, out/in); for response vs control in vivo at 0.003 mg/kg: oral gavage 0.003 mg/kg; for response vs control in vivo at 0.01 mg/kg: oral gavage 0.01 mg/kg; for response vs control in vivo at 0.03 mg/kg: oral gavage 0.03 mg/kg; for response vs control in vivo at 0.1 mg/kg: oral gavage 0.1 mg/kg; for FFS (1-5): rats, group median fecal form score, 1 normal pellet to 5 liquid fecal streams
Experimental: Urinary sodium excretion and fecal form were measured to assess the ability of selected example compounds to inhibit the absorption of sodium from the intestinal lumen. Eight-week old, male, Sprague Dawley rats were purchased from Envigo (Livermore, Calif.), were housed 2 per cage and acclimated for at least 48 hours before study initiation. Animals were fed. Harlan Teklad Global TD.160470 rodent chow (Madison, Wis.), standard laboratory rodent chow Harlan Teklad Global 2018 with the addition of 0.4% inorganic phosphorous. Animals had ad libitum access to food and water for the duration of the study and were maintained in a temperature and humidity controlled room on a standard light/dark cycle of 6 AM to 6 PM. On the day of study initiation, rats (n=5/group) were dosed by oral gavage with test compound or vehicle (3 mM HCl, 0.01% Tween80) at a dose volume of […]. Immediately after dose administration animals were placed in individual metabolic cages. At 13-hours post-dose, urine samples were collected and fecal form was assessed. In addition, the weight of food consumed over the 13-hour period was measured and recorded. Fecal forms were scored according to a common scale associated with increasing fecal water to the wettest observation in the cage's collection funnel (1, normal pellet; 2, pellet adhering to sides of collection funnel due to moisture; 3, loss of normal pellet shape; 4, complete loss of shape with a blotting pattern; 5, liquid fecal streams evident). Fecal form score (FFS) was calculated for each group as the median of each individual rat's FFS within the group and reported in Table 7. Fecal samples were dried using a lyophilizer for at least 3 days, following which dry weight was recorded and fecal fluid content was calculated based on the difference between the wet and dry stool weights. Fecal fluid content was calculated as a change from the vehicle group mean. For urine samples, the volumes were determined gravimetrically. Urine samples were analyzed on an ion chromatography system (Thermo Fisher ICS-3000 or ICS-5000+) coupled with conductivity detectors. Chromatographic separation of cations was performed using an IonPac CS12A (Thermo Fisher) 2×250 mm analytical column with an isocratic elution using 25 mM methanesulfonic acid. Concentrations were interpolated from a standard curve (prepared in 10 mM HCl) for sodium based on retention time and peak area. Thirteen-s-hour urinary sodium excretion (mg/13-hours) was calculated by multiplying urinary sodium concentration by 13-hour urine volume. The urinary sodium excretion of compound treatment was normalized to dietary sodium intake and expressed as a percentage of the vehicle mean.

gastrointestinal transit = test: Restoration of gastrointestinal motility in opioid induced constipation (loperamide); type: in vivo, mice; settings: oral gavage 15 mg/kg, loperamide s.c., Evans Blue small intestinal transit 30 minutes
Experimental: Approximately eight-week old, female, CD1 […] are purchased from Envigo (Livermore, Calif.), are housed 4 per cage and acclimated for at least 48 hours before study initiation. Animals are fed standard laboratory rodent chow Harlan Teklad Global 2018 (Madison, Wis.). Animals have ad libitum access to food and water for the duration of the acclimation period and are maintained in a temperature and humidity controlled room on a standard light/dark cycle of 6 AM to 6 PM. Following an overnight fast, with free access to water, animals are dosed by oral gavage with varying doses of test compound or vehicle (3 mM HCl, 0.01% Tween80), at a dose volume of 5 mL/kg. […] For an individual animal, the length travels by the Evans Blue dye front is divided by the length of the whole small intestine, measured from the pylorus to the cecum, and multiplied by 100, to provide the distance of the small intestine travelled by the dye as a percentage.

[3] = 1 hr after dosing, read-out: TEER at 60 minutes (% of Vehicle)
[4] = 0.5 h, 30 mins after dosing, read-out: TEER at 30 minutes (% of Vehicle)

Compound	activity at 1 µM [1, 3]	activity at 1 µM [1, 4]	response vs control in vivo at 0.003 mg/kg [2]	response vs control in vivo at 0.01 mg/kg [2]	response vs control in vivo at 0.03 mg/kg [2]	response vs control in vivo at 0.1 mg/kg [2]	FFS (1-5) ([2]; 0.003 mg/kg)	FFS (1-5) ([2]; 0.01 mg/kg)	FFS (1-5) ([2]; 0.03 mg/kg)	FFS (1-5) ([2]; 0.1 mg/kg)	% Restoration of Transit (gastrointestinal transit)
N#Cc1cc(Cl)cc2c1C[C@H](N1CCNCC1)[C@H]2Oc1ccc(S(=O)(=O)NCCOCCOCCNC(=O)NCCCCNC(=O)NCCOCCOCCNS(=O)(=O)c2ccc(O[C@H]3c4cc(Cl)cc(C#N)c4C[C@@H]3N3CCNCC3)cc2)cc1 [Example 41, 3-[2-(2-[2-[(4-[[(1S,2S)-6-Chloro-4-cyano-2-(piperazin-1-yl)-2,3-dihydro-1H-inden-1-yl]oxy]benzene)sulfonamido]ethoxy]ethoxy)ethyl]-1-[4-([[2-(2-[2-[(4-[[(1S,2S)-6-chloro-4-cyano-2-(piperazin-1-yl)-2,3-dihydro-1H-inden-1-yl]oxy]benzene)sulfonamido]ethoxy]ethoxy)ethyl]carbamoyl]amino)butyl]urea; bis(trifluoroacetic acid)]	100 to 130%	100 to 130%	> 70%	> 70%	40 to 70%	< 40%	2	2	2	5	A (<20%)
N#Cc1cc(Cl)cc2c1C[C@H](N1CCNCC1)[C@H]2Oc1ccc(S(=O)(=O)NC2CCN(C(=O)CCCNC(=O)NCCCCNC(=O)NCCCC(=O)N3CCC(NS(=O)(=O)c4ccc(O[C@H]5c6cc(Cl)cc(C#N)c6C[C@@H]5N5CCNCC5)cc4)CC3)CC2)cc1 [Example 115]	100 to 130%	100 to 130%	> 70%	> 70%	> 70%	< 40%	1	2	2	2	B (20-40%)
